Results as given in patent publication US4366143A, “Assay for the free portion of substances in biological fluids” (Amersham International Public Limited Company, priority 1979, dated 1982).
Where two headings read alike, the source gives them in different places.

Key:
[1] = test system: serum albumin; conditions: U.S. Pat. No. 4,069,305; cited from earlier work
[2] = biological target: T1, transcortin (Homo sapiens, UniProt P08185); assay: Binding of cortisol tracers to serum proteins / transcortin with and without ANS (Example 4); conditions: for % Tracer Bound to Serum Proteins (Corrected for Non-Specific Binding): charcoal extracted human serum
T1 construct: charcoal extracted human serum; from tissue; host or cells: human serum, charcoal extracted (unpurified)
T1 sequence (P08185 23-405): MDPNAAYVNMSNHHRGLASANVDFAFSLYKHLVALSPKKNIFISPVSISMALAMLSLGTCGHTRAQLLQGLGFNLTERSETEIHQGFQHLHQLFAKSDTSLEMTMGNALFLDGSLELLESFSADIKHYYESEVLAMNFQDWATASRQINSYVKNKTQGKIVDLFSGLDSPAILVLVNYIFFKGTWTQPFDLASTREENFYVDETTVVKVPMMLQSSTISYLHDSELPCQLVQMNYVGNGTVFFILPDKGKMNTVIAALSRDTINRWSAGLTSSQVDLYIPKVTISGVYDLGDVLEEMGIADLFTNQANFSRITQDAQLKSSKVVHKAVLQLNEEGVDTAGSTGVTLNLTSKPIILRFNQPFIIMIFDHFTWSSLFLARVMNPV
Protocol: The protocol was as follows:
B. 200 μl buffer (containing either 0 or 600 μg of 8-anilinonaphthalene sulphonic acid (ANS) as a cortisol binding site blocking agent).
A mixture of A and B was incubated at 37° C. for one hour. […] The reaction tubes were mixed for one hour at room temperature. A 0.5 ml aliquot of the supernatant was then removed for counting.

[3] = test system: rabbit anti-cortisol serum
Protocol: This experiment is designed to test the binding of cortisol-3-carboxymethyloxime-histamine-I^125 tracer with an antiserum raised to a cortisol-3-carboxymethyloxime-thyroglobulin conjugate. The protocol was as follows:
50 μl of serum was mixed with 200 μl of cortisol-3-carboxymethyloxime-histamine-I^125 tracer solution. The specific activity of the tracer was 3.9 curies per milligram. The tracer concentration was 125 picomolar. The buffer contained 28 g/l Na2 HPO4.12H2 O, 4.6 g/l citric acid monohydrate, 9 g/l NaCl, 3 g/l E.D.T.A. disodium salt, 0.5 g/l NaN3, 1 g/l gelatin and 1 g/l of 8-anilinonaphthalene sulphonic acid (the latter to inhibit binding of cortisol to transcortin and albumin).
To the mixture of tracer and serum, 200 μl of a suspension of polystyrene latex particles (0.9 micron diameter) coated with the rabbit anti-cortisol serum was added. The buffer was 28 g/l Na2 HPO4.12H2 O, 4.6 g/l citric acid monohydrate, 0.5 g/l NaN3 and 2 g/l bovine serum albumin. The effective antiserum dilution in the assay tube was 1/20000.
The resulting mixture was vortexed and incubated at 37° C. for 1 hour. The antibody coated particles were centrifuged down at 1500 g for 15 minutes and the liquid phase decanted off.

[4] = test system: antiserum raised to a 21-hemisuccinate-cortisol conjugate to bovine serum albumin; conditions: heterologous tracer-immunogen pair

C[C@]12CCC(=NOCC(=O)NCCc3c[nH]cn3)C=C1CC[C@@H]1[C@@H]2[C@@H](O)C[C@@]2(C)[C@H]1CC[C@]2(O)C(=O)CO
binding to serum albumin relative to cortisol (in words) [1]: binds much less strongly to serum albumin than cortisol itself

cortisol-3-carboxymethyloxime-histamine I^125
binding to transcortin (in words) [2]: binds very weakly to transcortin | % Tracer Bound to Serum Proteins (Corrected for Non-Specific Binding) ([2]; ANS 0 μg/tube): 7% | % Tracer Bound to Serum Proteins (Corrected for Non-Specific Binding) ([2]; ANS 600 μg/tube): 5% | displacement from transcortin by ANS blocking agent (in words) ([2]; high concentrations of ANS): not significantly displaced by the ANS blocking agent | % Radioactivity in the antibody Coated Particles ([3]; Total Plasma Cortisol 0 μg/dl): 65.4% | % Radioactivity in the antibody Coated Particles ([3]; Total Plasma Cortisol 1 μg/dl): 56.6% | % Radioactivity in the antibody Coated Particles ([3]; Total Plasma Cortisol 4 μg/dl): 43.0% | % Radioactivity in the antibody Coated Particles ([3]; Total Plasma Cortisol 10 μg/dl): 30.6% | % Radioactivity in the antibody Coated Particles ([3]; Total Plasma Cortisol 28 μg/dl): 19.2% | % Radioactivity in the antibody Coated Particles ([3]; Total Plasma Cortisol 60 μg/dl): 12.2% | affinity of antiserum for tracer (in words) [4]: sufficient affinity
